Numbers after ± are expanded uncertainties.
Conditions: Liquid, Closed cell (Static) method

vapor or sublimation pressure (303.15 K) [kPa] | vapor or sublimation pressure (318.15 K) [kPa] | vapor or sublimation pressure (333.15 K) [kPa] | SMILES
3.63 ± 0.31 | 9.01 ± 0.34 | 19.93 ± 0.39 | CCCO [propan-1-ol]
10.42 ± 0.38 | 23.02 ± 0.46 | 46.63 ± 0.58 | CCO [ethanol]

SMILES | vapor or sublimation pressure (303.15 K) [kPa] | vapor or sublimation pressure (318.15 K) [kPa] | vapor or sublimation pressure (333.15 K) [kPa]
CC1CO1 (centres undefined) [methyloxirane] | 86.9 ± 1.2 | 147.85 ± 1.9 | 237.88 ± 2.8

Source: the NIST ThermoML archive (doi:10.1016/j.jct.2015.02.006)
